According to patent US3954840A, “1,3,5,7-Naphthalenetetracarboxylic acids and process for preparation thereof” (Teijin Ltd., priority 1973, dated 1976):
Where “and” joins values, the source holds several entries; their conditions need not be identical. Equal values may be shown once. Entries after “also recorded” stand apart in the source; their conditions may differ. Read-outs that look alike come from different tables or passages of the source.

Legend:
Solubility in words = assay type: physicochemical; conditions: for Solubility in aqueous medium: aqueous medium (acid precipitation / disproportionation)
Thermal stability = assay type: physicochemical
[1] = Solubility of K4 XA in aqueous potassium carbonate (Table 3); assay type: physicochemical; conditions: water
[2] = Solubility of potassium salts in water/methanol mixtures at 30°C (Table 4); assay type: physicochemical
[3] = 30°C
[4] = Solubility of potassium naphthalenecarboxylates in pure water and in aqueous K4 XA solution (Table 1); assay type: physicochemical; conditions: 30% aqueous k4xa
Text: Generally, alkali metal naphthalenecarboxylates, taken individually, are easily soluble in a sufficient amount of water.

[5] = Stability in water / acid; assay type: physicochemical

## CCCCOC(=O)c1cc(C(=O)OCCCC)c2cc(C(=O)OCCCC)cc(C(=O)OCCCC)c2c1 [tetra-n-butyl 1,3,5,7-naphthalenetetracarboxylate]
Solubility in words
  Solubility in chloroform: Readily soluble
  Solubility in ether(s): Readily soluble
Solubility in words; hot ethanol
  Solubility in hot ethanol: Readily soluble

## O=C(O)c1cc(C(=O)O)c2cc(C(=O)O)cc(C(=O)O)c2c1 [1,3,5,7-naphthalenetetracarboxylic acid]
Solubility in words; alcohols
  Solubility in alcohols: Insoluble
Solubility in words
  Solubility in aqueous medium: very low solubility
  Solubility in benzene: Insoluble
  Solubility in ether(s): Insoluble
Solubility in words; listed as H4 XA
  Solubility in aqueous medium: almost insoluble
Solubility in words; various solvents
  Solubility in various solvents: very low solubility
Solubility in words; water
  Solubility in water: Insoluble
Thermal stability; high temperatures (melting point above 300°C)
  Thermal stability: decomposed

## O=C([O-])c1cc(C(=O)[O-])c2cc(C(=O)[O-])cc(C(=O)[O-])c2c1.[K+].[K+].[K+].[K+]
[1]
  Solubility (grams of the potassium salt dissolved in 100 g of solvent): 57.0 g and 48.8 g
[2]
  Change of solubility with increasing methanol concentration: decreases abruptly
Solubility in words
  Solubility in methanol: slightly soluble
  Solubility in water: very high; also recorded: Readily soluble
Thermal stability
  Thermal stability: almost no change occurred, but the product was stable
[3]; methanol 40%, K2CO3 0%
  Amount of tetrapotassium salt dissolved in 100 g of a mixture of water and methanol: 9.0 g
[3]; methanol 40%, K2CO3 10%
  Amount of tetrapotassium salt dissolved in 100 g of a mixture of water and methanol: 3.8 g
[3]; methanol 40%, K2CO3 20%
  Amount of tetrapotassium salt dissolved in 100 g of a mixture of water and methanol: 1.0 g
[3]; methanol 40%, K2CO3 30%
  Amount of tetrapotassium salt dissolved in 100 g of a mixture of water and methanol: 0.2 g
[3]; methanol 60%, K2CO3 0%
  Amount of tetrapotassium salt dissolved in 100 g of a mixture of water and methanol: 1.7 g
[3]; methanol 60%, K2CO3 10%
  Amount of tetrapotassium salt dissolved in 100 g of a mixture of water and methanol: 0.1 g
[3]; methanol 80%, K2CO3 0%
  Amount of tetrapotassium salt dissolved in 100 g of a mixture of water and methanol: 0.13 g
[3]; methanol 80%, K2CO3 3%
  Amount of tetrapotassium salt dissolved in 100 g of a mixture of water and methanol: < 0.01 g

## O=C(O)c1cc(C(=O)O)c2cc(C(=O)O)cc(C(=O)[O-])c2c1.[K+]
Solubility in words
  Solubility in water: difficultly soluble

## CCCCCCCCCCCCOC(=O)c1cc(C(=O)OCCCCCCCCCCCC)c2cc(C(=O)OCCCCCCCCCCCC)cc(C(=O)OCCCCCCCCCCCC)c2c1 [tetra-n-dodecyl 1,3,5,7-naphthalenetetracarboxylate]
Solubility in words; acetone
  Solubility in acetone: Readily soluble
Solubility in words
  Solubility in benzene: Readily soluble
  Solubility in chloroform: Readily soluble
  Solubility in ether(s): Readily soluble

## O=C([O-])c1ccc2cc(C(=O)[O-])ccc2c1.[K+].[K+]
[4]
  Solubility in 100 g of a 30% by weight aqueous solution of tetrapotassium 1,3,5,7-naphthalenetetracarboxylate: 1.0 g
[2]
  Change of solubility with increasing methanol concentration: decrease with higher methanol concentrations but not to such a great extent as in the case of K4 XA
[2]; 30°C, methanol 40 wt. %
  Amount of solute dissolved in 100 g of a mixture of water and methanol: 8.5 g
[2]; 30°C, methanol 60 wt. %
  Amount of solute dissolved in 100 g of a mixture of water and methanol: 3.6 g
[2]; 30°C, methanol 80 wt. %
  Amount of solute dissolved in 100 g of a mixture of water and methanol: 0.88 g
[2]; 30°C, methanol 100 wt. %
  Amount of solute dissolved in 100 g of a mixture of water and methanol: 0.17 g
[2]; water
  Amount of solute dissolved in 100 g of a mixture of water and methanol: 32 g

## O=C([O-])c1cc(C(=O)[O-])c2cc(C(=O)[O-])cc(C(=O)[O-])c2c1.[Na+].[Na+].[Na+].[Na+] [tetrasodium 1,3,5,7-naphthalenetetracarboxylate]
Thermal stability; around 400°C
  Thermal stability: stable

## O.O.O=C([O-])c1cc(C(=O)[O-])c2cc(C(=O)[O-])cc(C(=O)[O-])c2c1.[K+].[K+].[K+].[K+] [Tetrapotassium 1,3,5,7-naphthalenetetracarboxylate dihydrate]
[2]; 30°C, methanol 0 wt. %
  Amount of solute dissolved in 100 g of a mixture of water and methanol: 45 g
[2]; 30°C, methanol 40 wt. %
  Amount of solute dissolved in 100 g of a mixture of water and methanol: 9 g
[2]; 30°C, methanol 60 wt. %
  Amount of solute dissolved in 100 g of a mixture of water and methanol: 1.7 g
[2]; 30°C, methanol 80 wt. %
  Amount of solute dissolved in 100 g of a mixture of water and methanol: 0.13 g
[2]; 30°C, methanol 100 wt. %
  Amount of solute dissolved in 100 g of a mixture of water and methanol: 0.30 g

## O=C([O-])c1cc(C(=O)[O-])c2cc(C(=O)O)cc(C(=O)[O-])c2c1.[K+].[K+].[K+]
[5]
  Stability in water: Easily decomposable

## O=C([O-])c1ccc2ccccc2c1.[K+]
[4]
  Solubility in 100 g of a 30% by weight aqueous solution of tetrapotassium 1,3,5,7-naphthalenetetracarboxylate: 0.3 g
[2]
  Change of solubility with increasing methanol concentration: decrease with higher methanol concentrations but not to such a great extent as in the case of K4 XA
[2]; 30°C, methanol 40 wt. %
  Amount of solute dissolved in 100 g of a mixture of water and methanol: 45 g
[2]; 30°C, methanol 60 wt. %
  Amount of solute dissolved in 100 g of a mixture of water and methanol: 30 g
[2]; 30°C, methanol 80 wt. %
  Amount of solute dissolved in 100 g of a mixture of water and methanol: 19 g
[2]; 30°C, methanol 100 wt. %
  Amount of solute dissolved in 100 g of a mixture of water and methanol: 9.3 g
[2]; water
  Amount of solute dissolved in 100 g of a mixture of water and methanol: 80 g
